Experimental data: patent US20250368617A1, “NOVEL RAS INHIBITORS” (KHR BIOTEC GMBH, priority 2022, published 2025)

How the values were obtained:
KRAS G12V = target: T1, KRAS G12V (Homo sapiens, UniProt P01116, G12V); experiment: NanoBit assay for RAS activation (LgBiT-KRAS G12V / SmBiT-CRAF RAS binding domain); assay type: cell-based; details: KRAS G12V with CRAF RBD (1-149); 2 h with inhibitor in serum free DMEM; DMSO set as 1
T1 construct: K, N and HRAS G12V (full length) was cloned with Xho I and BgI II to LgBit; expressed in transfected cells
T1 sequence (P01116 1-186 isoform P01116-2 G12V limits assumed): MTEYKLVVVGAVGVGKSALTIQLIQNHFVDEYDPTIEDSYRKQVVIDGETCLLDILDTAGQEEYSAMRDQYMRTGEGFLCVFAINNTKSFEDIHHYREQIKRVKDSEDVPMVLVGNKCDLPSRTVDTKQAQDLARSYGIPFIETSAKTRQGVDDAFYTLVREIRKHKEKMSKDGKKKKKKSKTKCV
Protocol: (§1) FIGS. 1a) and 1b): NanoBit assay for RAS activation (KRAS G12V, NRAS G12V, HRAS G12V) N-terminal LgBiT and C-terminal SmBiT construct was purchased from Promega and K, N and HRAS G12V (full length) was cloned with Xho I and BgI II to LgBit and CRAF RAS binding domain (1-149) was cloned with EcoRI and BgI II to SmBit. For transfections, 1 μg or 2 μg of (12 well/6 well) plasmids were transfected into cells with 0.5 mM of PEI reagent in 100 μl or 200 μl PBS. One day after transfection, cells were harvested and seeded into 96 well white plates, half area (Greiner). After an additional day the medium was changed to serum free DMEM and the cells were incubated for 2 h with inhibitors. NanoGlo assay was performed according to the manufacturer's instructions. The luminescence was measured using Tecan infinite (Tecan). DMSO-treated cells were set as 1. The results shown are mean mean±SEM from at least 3 independent experiments.

sNF96.2 = experiment: RASOpathie-Model; MTT assay for cell viability in 96 well cell culture plate (FIG. 5); assay type: cell-based; details: 48 h treatment
Protocol: (§2) Metabolic activity was quantified using Cell Proliferation Kit I (Roche, Basel, Switzerland). Cells were seeded in 96-well cell culture plates, using 5000 cells per well for NCI-H358 cells. After treatment, 10 μl of MTT solution was added and incubated for 2 h in CO2 incubator. Then 100 μl of solubilization buffer was added to each well and incubated overnight in CO2 incubator. Cell viability, assessed by the amount of metabolized MTT, was quantified by measuring absorbance at 570 nm.
FIG. 5: RASOpathie-Model of GSK2126458; MTT assay for cell viability in 96 well cell culture plate
Cells were treated with GSK2126458 for 48 h and cell viability was evaluated by MTT assay. DMSO-treated cells were set as 1. The results shown are mean±SEM from 3 independent experiments.

[1] = tested on: p110a, p110β, p110γ, p110σ, and the mTOR1 and mTOR2 complexes and DNA-PK; details: ATP-competitive, reversible; cited from earlier work
[2] = tested on: LgBit-KRAS mutants (G12V, G12C, G12D, G12C/Y96D, G13C, G13D, G13S, Q61K and Q61R); experiment: NanoBit assay for inhibition of RAS activation, KRAS mutants in HeLa cells; assay type: cell-based; details: LgBit-KRAS mutants and SmBit-CRAF-RBD, 2 h in serum-free DMEM
Protocol: FIG. 3: NanoBit assay for inhibition of RAS activation (G12V, G12C, G12D, G12C/Y96D, G13C, G13D, G13S, Q61K and Q61R)
NanoBiT assay for the RAS GTP-loading was performed in HeLa cells transfected with LgBit-KRAS mutants and SmBit-CRAF-RBD. Cells were treated with GSK2126458 according to the invention for 2 h in serum-free DMEM. After incubation, the substrate for NanoLuc was added, and the luminescence was measured in a multiplate reader. Data were normalized to cells transfected with the indicated mutant and exposed to DMSO for 2 h. DMSO-treated cells were set as 1. The bars represent mean±SEM from 3 independent experiments.

NRAS G12V = target: T2, NRAS G12V (Homo sapiens, UniProt P01111, G12V); experiment: NanoBit assay for RAS activation (LgBiT-NRAS G12V / SmBiT-CRAF RAS binding domain); assay type: cell-based; details: NRAS G12V with CRAF RBD (1-149); 2 h with inhibitor in serum free DMEM; DMSO set as 1
T2 construct: K, N and HRAS G12V (full length) was cloned with Xho I and BgI II to LgBit; expressed in transfected cells
T2 sequence (P01111 1-186 G12V limits assumed): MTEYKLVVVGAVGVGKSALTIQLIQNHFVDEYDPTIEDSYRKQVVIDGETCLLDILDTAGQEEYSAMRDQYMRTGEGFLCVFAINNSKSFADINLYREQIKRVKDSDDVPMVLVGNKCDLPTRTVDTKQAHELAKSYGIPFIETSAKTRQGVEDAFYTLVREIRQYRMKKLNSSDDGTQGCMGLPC
Protocol: as §1

T24 cells = experiment: Soft agar colony formation assay with MTT staining; assay type: cell-based; details: Homo sapiens, T-24, growth in soft agar, absorbance at 570 nm
Protocol: as §2
(§3) MTT assay for the growth of different tumor cell lines with RAS mutations in soft agar with GSK2126458. Shown are data from three independent experiments.
(§4) NCI-H358, H358, H2122, ASPC-1, HCT-116, T24 and HT1080 cells were used for the soft […] agar colony formation assay. After the treatment with GSK2126458, the colonies were stained with MTT and the value was quantified by measuring absorbance at 570 nm after solubilization. The results represent mean±SD from 3 independent experiments.

HT1080 cells = experiment: Soft agar colony formation assay with MTT staining; assay type: cell-based; details: Homo sapiens, HT-1080, growth in soft agar, absorbance at 570 nm
Protocol: as §2, §3, §4

HCT-116 cells = experiment: Soft agar colony formation assay with MTT staining; assay type: cell-based; details: Homo sapiens, growth in soft agar, absorbance at 570 nm
Protocol: as §2, §3, §4

NCI-H2122 cells = experiment: Soft agar colony formation assay with MTT staining; assay type: cell-based; details: Homo sapiens, growth in soft agar, absorbance at 570 nm
Protocol: as §2, §3, §4

ASPC1 cells = experiment: Soft agar colony formation assay with MTT staining; assay type: cell-based; details: Homo sapiens, growth in soft agar, absorbance at 570 nm
Protocol: as §2, §3, §4

NCI-H358 cells = experiment: Soft agar colony formation assay with MTT staining; assay type: cell-based; details: Homo sapiens, growth in soft agar, absorbance at 570 nm
Protocol: as §2, §3, §4

HRAS G12V = target: T3, HRAS G12V (Homo sapiens, UniProt P01112, G12V); experiment: NanoBit assay for RAS activation (LgBiT-HRAS G12V / SmBiT-CRAF RAS binding domain); assay type: cell-based; details: HRAS G12V with CRAF RBD (1-149); 2 h with inhibitor in serum free DMEM; DMSO set as 1
T3 construct: K, N and HRAS G12V (full length) was cloned with Xho I and BgI II to LgBit; expressed in transfected cells
T3 sequence (P01112 1-186 G12V limits assumed): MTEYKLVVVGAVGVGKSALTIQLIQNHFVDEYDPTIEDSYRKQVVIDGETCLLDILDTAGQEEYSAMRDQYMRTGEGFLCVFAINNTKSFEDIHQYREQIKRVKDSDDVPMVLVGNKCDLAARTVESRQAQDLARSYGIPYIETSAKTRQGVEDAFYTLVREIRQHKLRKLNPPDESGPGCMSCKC
Protocol: as §1

KRAS dependent cells = experiment: MTT assay for cell viability in 96 well cell culture plate (FIG. 4); assay type: cell-based; details: 48 h treatment; incl. G12C/Y96D mutation; DMSO set as 1
Protocol: as §2
FIG. 4: MTT assay for cell viability in 96 well cell culture plate Cells were treated with GSK2126458 for 48 h and cell viability was evaluated by MTT assay. […]. DMSO-treated cells were set as 1. The results shown are mean±SEM from 3 independent experiments.

inhibition of K-RAS activation (NanoBit luminescence) (KRAS G12V): inhibits
inhibition of N-RAS activation (NanoBit luminescence) (NRAS G12V): inhibits
IC50 (T24 cells): 228 µM
IC50 (HT1080 cells): 86.9 µM
IC50 (HCT-116 cells): 47.4 µM
IC50 (NCI-H2122 cells): 4.51 µM
IC50 (ASPC1 cells): 10.8 µM
IC50 (NCI-H358 cells): 11.5 µM
inhibition of H-RAS activation (NanoBit luminescence) (HRAS G12V): inhibits
Compound: COc1ncc(-c2ccc3nccc(-c4ccnnc4)c3c2)cc1NS(=O)(=O)c1ccc(F)cc1F [GSK2126458, 2,4-Difluoro-N-[2-methoxy-5-[4-(4-pyridazinyl)-6-quinolinyl]-3-pyridinyl]benzenesulfonamide]
IC50 (sNF96.2): 3.8 µM
activity against PI3K isoforms, mTOR complexes and DNA-PK [1]: subnanomolar activity
inhibition of RAS activation (RAS GTP-loading, NanoBiT) [2]: inhibits different RAS-isoforms
cell viability (MTT) (KRAS dependent cells): inhibits KRAS dependent cells irrespective of the presence of mutation
